# Experimental data reported in patent US20220289698A1, “INHIBITORS OF HUMAN ATGL” (Karl-Franzens-Universität Graz, priority 2019, published 2022).
# Like-named read-outs stand apart in the source and are kept apart here.
# Key:
# murine ATGL = target: T1, murine ATGL (Mus musculus, UniProt Q8BJ56); experiment: TG hydrolase activity, Expi lysates expressing mouse ATGL + CGI-58, radiolabelled triolein; type: biochemical
# T1 construct: made in house; host or cells: Expi cells (lysate)
# T1 sequence (Q8BJ56 1-486): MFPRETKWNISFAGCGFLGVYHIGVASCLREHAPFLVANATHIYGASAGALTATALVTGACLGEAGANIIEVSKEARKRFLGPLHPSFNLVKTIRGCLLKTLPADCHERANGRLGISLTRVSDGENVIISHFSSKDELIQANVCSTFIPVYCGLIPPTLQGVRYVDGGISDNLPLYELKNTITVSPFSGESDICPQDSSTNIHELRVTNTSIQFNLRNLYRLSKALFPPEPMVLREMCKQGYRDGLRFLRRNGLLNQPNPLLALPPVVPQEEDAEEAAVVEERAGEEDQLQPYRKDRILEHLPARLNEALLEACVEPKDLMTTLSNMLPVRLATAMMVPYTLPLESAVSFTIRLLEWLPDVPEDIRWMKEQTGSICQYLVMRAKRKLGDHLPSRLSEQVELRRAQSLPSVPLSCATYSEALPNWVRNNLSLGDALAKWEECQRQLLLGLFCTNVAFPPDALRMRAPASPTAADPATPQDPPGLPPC
# Procedure: (§1) Triglyceride (TG) hydrolase activity was measured as previously described (Schweiger M et al., Methods in Enzymology, 2014, 538:171-93). In brief, TG hydrolase activity was determined by adding recombinant purified CGI-58 to Expi cell lysates expressing human ATGL. For determination of cross-species reactivity Expi lysates expressing ATGL from different model organisms (e.g. mouse, rat, rhesus monkey, goat, etc.) were used. Samples were incubated with DMSO (carrier) or increasing concentrations of ATGL inhibitors dissolved in DMSO. TG substrate was prepared by emulsifying 330 μM radiolabelled triolein (40,000 c.p.m./nmol) and 45 μM phosphatidylcholine/phosphatidylinositol (3:1) in 100 mM potassium phosphate buffer (pH 7.0) by sonication and adjusting to 5% essentially FA-free BSA. TG substrate was added to the reaction mixture and incubated for 1 h at 37° C. in the water bath. The reaction was terminated by adding methanol/chloroform/heptane (10:9:7) and 0.1 M potassium carbonate with 0.1 M boric acid (pH 10.5). After centrifugation at 800 g for 15 min the radioactivity in the upper phase was determined by liquid scintillation counting and the rate of FA hydrolysis was calculated. IC50 values were determined as inhibitor concentration capable of inhibiting TG hydrolase activity by 50% as compared to DMSO control. Samples were measured as duplicates. The determination of IC50 values for human ATGL is illustrated in FIG. 1.
# Lysates from Expi cells overexpressing ATGL from mouse (Mus musculus) were incubated with recombinant purified ATGL co-activator CGI-58 and ATGL inhibitors at 50 μM. Subsequently, substrate containing radiolabeled triolein was added and liberated FA were extracted and quantified by liquid scintillation. Inhibitors were dissolved in DMSO which was used as control. Samples were measured in triplicates.
# human ATGL = target: T2, human ATGL (Homo sapiens, UniProt Q96AD5); experiment: TG hydrolase activity, Expi cell lysates expressing human ATGL + CGI-58, radiolabelled triolein; type: biochemical
# T2 construct: made in house; host or cells: Expi cells (lysate, not purified)
# T2 sequence (Q96AD5 1-504): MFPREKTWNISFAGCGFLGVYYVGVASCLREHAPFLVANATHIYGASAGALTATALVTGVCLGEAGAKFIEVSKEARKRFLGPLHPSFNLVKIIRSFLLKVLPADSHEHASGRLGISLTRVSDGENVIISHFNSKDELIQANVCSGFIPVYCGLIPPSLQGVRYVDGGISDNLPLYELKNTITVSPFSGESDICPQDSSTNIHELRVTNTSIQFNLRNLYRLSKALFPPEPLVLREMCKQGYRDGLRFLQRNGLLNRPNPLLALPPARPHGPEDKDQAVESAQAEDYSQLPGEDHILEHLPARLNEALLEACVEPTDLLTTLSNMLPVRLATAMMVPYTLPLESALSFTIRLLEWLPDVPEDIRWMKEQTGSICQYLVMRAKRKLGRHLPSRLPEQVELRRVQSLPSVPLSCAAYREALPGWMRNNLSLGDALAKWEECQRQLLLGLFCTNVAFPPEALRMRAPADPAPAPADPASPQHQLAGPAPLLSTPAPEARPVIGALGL
# Procedure: as §1
# [1] = 50 μM compound, Example 237, read-out: Inhibition of murine ATGL at 50 μM − mean [%]
# [2] = Example 237, read-out: Inhibition of human ATGL − IC50
# [3] = values of text and figure legend, read-out: IC50 on human ATGL (hATGL)
# [4] = Example 238, read-out: Inhibition of human ATGL IC50
# [5] = 50 μM, Example 238, read-out: % Inhibition of murine ATGL at 50 μM
smiles,measurement,setting,value
"CCOc1ccc(-c2nc(C(=O)OC)cs2)cc1 [Example 122, Methyl 2-(4-ethoxyphenyl) thiazole-4-carboxylate]",inhibition at 50 µM,murine ATGL; [1],2.1%
same,IC50,human ATGL; [2],8 µM
"CCCC(C)OC(=O)c1csc(-c2ccc(OCC)cc2)n1 (centres unmarked) [Example 117, Pentan-2-yl 2-(4-ethoxyphenyl)thiazole-4-carboxylate]",inhibition at 50 µM,murine ATGL; [1],7.4%
same,IC50,human ATGL; [2],3 µM
CC(C)OC(=O)c1cccc(OCCc2ccccc2)n1 [Example 91],IC50,human ATGL; [2],50 µM
"CCOc1ccc(-c2ccc(C)c(C(=O)OC(C)C)n2)cc1 [NG-469, reference compound]",IC50,human ATGL; [3],> 200 µM
CC(C)OC(=O)c1cccc(-c2ccc(C(=O)N(C)C)cc2)n1 [Example 42],inhibition at 50 µM,murine ATGL; [1],6.2%
same,IC50,human ATGL; [2],10 µM
"CC(C)Oc1ccc(-c2nc(C(=O)OCc3ccsc3)cs2)cc1 [Example 233, Thiophen-3-ylmethyl 2-(4-Isopropoxyphenyl)thiazole-4-carboxylate]",IC50,human ATGL; [4],10 µM
"CCOC(=O)c1nc(-c2ccc(OCC)cc2)sc1I [Example 165, Ethyl 2-(4-ethoxyphenyl)-5-iodothiazole-4-carboxylate]",IC50,human ATGL; [2],5 µM
"CCOc1ccc(-c2nc(C(=O)OC(C)CC)cs2)cc1 (centres unmarked) [Example 114, sec-Butyl 2-(4-ethoxyphenyl)thiazole-4-carboxylate]",inhibition at 50 µM,murine ATGL; [1],7%
same,IC50,human ATGL; [2],3 µM
"CCOc1ccc(-c2nc(C(=O)OCC(F)(F)F)cs2)cc1 [Example 116, 2,2,2-Trifluoroethyl 2-(4-ethoxyphenyl)thiazole-4-carboxylate]",inhibition at 50 µM,murine ATGL; [1],0%
same,IC50,human ATGL; [2],12 µM
CC(C)OC(=O)c1ccc(-c2cccc(C(=O)OC(C)C)n2)cc1 [Example 97],IC50,human ATGL; [2],20 µM
CCOc1ccc(-c2nc(C(=O)OC(C)C)c(OC(C)C)s2)cc1 [Example 177],inhibition at 50 µM,murine ATGL; [1],0%
same,IC50,human ATGL; [2],25 µM
"CCOc1ccc(-c2nc(C(=O)OCC3CC3)cs2)cc1 [Example 136, Cyclopropylmethyl 2-(4-ethoxyphenyl)thiazole-4-carboxylate]",inhibition at 50 µM,murine ATGL; [1],9.8%
same,IC50,human ATGL; [2],20 µM
CON(C)C(=O)c1ccc(-c2cccc(C(=O)OC(C)C)n2)cc1 [Example 77],inhibition at 50 µM,murine ATGL; [1],0%
same,IC50,human ATGL; [2],5 µM
"CCCCOc1ccc(-c2nc(C(=O)OCC)cs2)cc1 [Example 109, Ethyl 2-(4-butoxyphenyl)thiazole-4-carboxylate]",inhibition at 50 µM,murine ATGL; [1],0%
same,IC50,human ATGL; [2],10 µM
"CCOc1ccc(-c2nc(C(=O)OC3CCOC3)cs2)cc1 (centres unmarked) [Example 130, Tetrahydrofuran-3-yl 2-(4-ethoxyphenyl)thiazole-4-carboxylate]",inhibition at 50 µM,murine ATGL; [1],13.9%
same,IC50,human ATGL; [2],3 µM
"CCOC(=O)c1nc(-c2ccc(OCC)cc2)sc1C(C)=O [Example 172, Ethyl 5-acetyl-2-(4-ethoxyphenyl)thiazole-4-carboxylate]",IC50,human ATGL; [2],20 µM
COc1cc(C(=O)OC(C)C)nc(-c2ccc(C(C)OC)cc2)c1 (centres unmarked) [Example 62],IC50,human ATGL; [2],2 µM
"CCOc1ccc(-c2nc(C(=O)OCc3cocn3)cs2)cc1 [Example 218, Oxazol-4-ylmethyl 2-(4-ethoxyphenyl)thiazole-4-carboxylate]",IC50,human ATGL; [4],20 µM
"CCOC(=O)c1cc(-c2ccc(OCC)cc2)no1 [AMU-4-245, reference compound]",IC50,human ATGL; [3],≥ 200 µM
"CCOc1ccc(-c2nc(C(=O)OC(C)(C)C)c(N3CCCCC3)s2)cc1 [Example 167, tert-Butyl 2-(4-ethoxyphenyl)-5-(piperidin-1-yl)thiazole-4-carboxylate]",IC50,human ATGL; [2],10 µM
"CCOc1ccc(-c2nc(C(=O)OCc3ccncc3)cs2)cc1 [Example 159, Pyridin-4-ylmethyl 2-(4-ethoxyphenyl)thiazole-4-carboxylate]",IC50,human ATGL; [2],20 µM
"C#CCOC(=O)c1csc(-c2ccc(OCC)cc2)n1 [Example 149, Prop-2-yn-1-yl 2-(4-ethoxyphenyl)thiazole-4-carboxylate]",IC50,human ATGL; [2],3 µM
"CCOc1ccc(-c2nc(C(=O)OC(C)(C)C)c(C(=O)C3CC3)s2)cc1 [Example 174, tert-Butyl 5-(cyclopropanecarbonyl)-2-(4-ethoxyphenyl)thiazole-4-carboxylate]",IC50,human ATGL; [2],25 µM
"CCCCCCOC(=O)c1csc(-c2ccc(OCC)cc2)n1 [Example 156, Hexyl 2-(4-ethoxyphenyl)thiazole-4-carboxylate]",IC50,human ATGL; [2],15 µM
CCCCc1ccc(-c2cc(OC)cc(C(=O)OC(C)C)n2)cc1 [Example 57],IC50,human ATGL; [2],2 µM
CCOC(=O)c1cccc(-c2ccc(COC(C)=O)cc2)n1 [Example 93],IC50,human ATGL; [2],20 µM
CCOC(=O)c1cccc(-c2ccc(C(C)OC)cc2)n1 (centres unmarked) [Example 45],IC50,human ATGL; [2],10 µM
"CCOC(=O)c1cnc(-c2ccc(OCC)cc2)s1 [AM-52, reference compound]",IC50,human ATGL; [3],> 200 µM
"CCOC(=O)c1cc(-c2ccc(OCC)cc2)ns1 [AMU-27, reference compound]",IC50,human ATGL; [3],≥ 200 µM
"CCOc1ccc(-c2nc(C(=O)OC(C)c3nccs3)cs2)cc1 (centres unmarked) [Example 225, 1-(Thiazol-2-yl)ethyl 2-(4-ethoxyphenyl)thiazole-4-carboxylate]",inhibition at 50 µM,murine ATGL; [5],68%
"CCOc1ccc(-c2nc(C(=O)OC(C)(C)C)c(C(C)=O)s2)cc1 [Example 171, tert-Butyl 5-acetyl-2-(4-ethoxyphenyl)thiazole-4-carboxylate]",IC50,human ATGL; [2],5 µM
"CCOc1ccc(-c2nc(C(=O)OCc3ccccc3)cs2)cc1 [Example 158, Benzyl 2-(4-ethoxyphenyl)thiazole-4-carboxylate]",IC50,human ATGL; [2],15 µM
"CCC/C=C/COC(=O)c1csc(-c2ccc(OCC)cc2)n1 [Example 155, (E)-Hex-2-en-1-yl 2-(4-ethoxyphenyl)thiazole-4-carboxylate]",IC50,human ATGL; [2],15 µM
"COc1ccc(-c2nc(C(=O)OCc3ccsc3)cs2)cc1 [Example 231, Thiophen-3-ylmethyl 2-(4-methoxyphenyl)thiazole-4-carboxylate]",IC50,human ATGL; [4],30 µM
"CCOc1ccc(-c2nc(C(=O)OC(C)(C)C)c(C(=O)C(C)C)s2)cc1 [Example 173, tert-Butyl 2-(4-ethoxyphenyl)-5-isobutyrylthiazole-4-carboxylate]",IC50,human ATGL; [2],12 µM
"CCOc1ccc(-c2nc(C(=O)OCc3cccnc3)cs2)cc1 [Example 160, Pyridin-3-ylmethyl 2-(4-ethoxyphenyl)thiazole-4-carboxylate]",IC50,human ATGL; [2],15 µM
CCOc1ccc(-c2nc(C(=O)OCc3cnco3)cs2)cc1 [Example 220],IC50,human ATGL; [4],30 µM
"CCOC(=O)c1nc(-c2ccc(OCC)cc2)sc1C(C)C [Example 227, Ethyl 2-(4-ethoxyphenyl)-5-isopropylthiazole-4-carboxylate]",inhibition at 50 µM,murine ATGL; [5],44%
"CCCOc1ccc(-c2nc(C(=O)OCc3ccsc3)cs2)cc1 [Example 232, Thiophen-3-ylmethyl 2-(4-propoxyphenyl)thiazole-4-carboxylate]",IC50,human ATGL; [4],12 µM
"CCOC(=O)c1nc(-c2ccc(OCC)cc2)sc1Br [Example 164, Ethyl 5-bromo-2-(4-ethoxyphenyl)thiazole-4-carboxylate]",IC50,human ATGL; [2],25 µM
"CN(C)C(=O)Nc1cccc(-c2ccc(N(C)C)cc2)c1 [atglistatin, reference compound]",IC50,human ATGL; [3],> 200 µM
COCOc1ccc(-c2cccc(C(=O)OC(C)C)n2)cc1 [Example 13],IC50,human ATGL; [2],8 µM
"CCOC(=O)c1cn(-c2ccc(OCC)cc2)cn1 [AM-30, reference compound]",IC50,human ATGL; [3],≥ 200 µM
